Data: ChEMBL document CHEMBL1833853, “Synthesis and in-vitro anticancer activity of 3,5-bis(indolyl)-1,2,4-thiadiazoles” (Bioorg Med Chem Lett, 2011)

Assays:
Format in all cases: functional, cell-based
[1] = test system: MCF7; assay: Cytotoxicity against human MCF7 cells
[2] = test system: MDA-MB-231; assay: Cytotoxicity against human MDA-MB-231 cells
[3] = test system: LNCaP; assay: Cytotoxicity against human LNCAP cells
[4] = test system: DU-145; assay: Cytotoxicity against human DU145 cells
[5] = test system: PC-3; assay: Cytotoxicity against human PC3 cells
[6] = test system: MIA PaCa-2; assay: Cytotoxicity against human MIAPaCa2 cells

Row | SMILES | IC50 [1] [µM] | IC50 [2] [µM] | IC50 [3] [µM] | IC50 [4] [µM] | IC50 [5] [µM] | IC50 [6] [µM]
1 | c1ccc2c(-c3nsc(-c4c[nH]c5ccccc45)n3)c[nH]c2c1 | 143 | 702 | > 1000 | 248 | > 1000 | > 1000
2 | Cn1cc(-c2nsc(-c3cn(C)c4ccccc34)n2)c2ccccc21 | 177 | 236 | 226 | 64 | 92.3 | 185
3 | Clc1ccc(Cn2cc(-c3nsc(-c4cn(Cc5ccc(Cl)cc5)c5ccccc45)n3)c3ccccc32)cc1 | > 1000 | > 1000 | 413 | > 1000 | > 1000 | 101
4 | Brc1ccc2[nH]cc(-c3nsc(-c4c[nH]c5ccc(Br)cc45)n3)c2c1 | 31.3 | 100 | 159 | 56.7 | 162 | 124
5 | Cn1cc(-c2nsc(-c3cn(C)c4ccc(Br)cc34)n2)c2cc(Br)ccc21 | 63.6 | > 1000 | > 1000 | > 1000 | > 1000 | > 1000
6 | COc1ccc2[nH]cc(-c3nsc(-c4c[nH]c5ccc(OC)cc45)n3)c2c1 | 424 | > 1000 | 295 | 206 | 224 | 45.8
7 | COc1ccc2c(c1)c(-c1nsc(-c3cn(C)c4ccc(OC)cc34)n1)cn2C | 79.9 | 95.7 | 111 | 137 | 270 | 177
8 | COc1ccc2c(c1)c(-c1nsc(-c3cn(Cc4ccc(Cl)cc4)c4ccc(OC)cc34)n1)cn2Cc1ccc(Cl)cc1 | 32.1 | 67.9 | 14.6 | 370 | 21.4 | 21.2
9 | O=[N+]([O-])c1ccc2[nH]cc(-c3nsc(-c4c[nH]c5ccc([N+](=O)[O-])cc45)n3)c2c1 | 83.5 | 98.6 | 177 | 325 | 680 | 187
10 | Brc1ccc2c(-c3nsc(-c4c[nH]c5cc(Br)ccc45)n3)c[nH]c2c1 | 39.2 | 38.3 | 80.1 | 30.2 | 132 | 83
11 | COc1ccc2c(-c3nsc(-c4c[nH]c5cc(OC)ccc45)n3)c[nH]c2c1 | 35.3 | 44.3 | 35.8 | 42.3 | 76.1 | 95.3
12 | c1ccc2[nH]c(-c3nsc(-c4cc5ccccc5[nH]4)n3)cc2c1 | 162 | > 1000 | 247 | 453 | 326 | 102
13 | Cn1c(-c2nsc(-c3cc4ccccc4n3C)n2)cc2ccccc21 | 66.4 | > 1000 | 207 | > 1000 | 432 | 260
14 | c1ccc2c(Cc3nsc(Cc4c[nH]c5ccccc45)n3)c[nH]c2c1 | 40.5 | 65 | 43.3 | 51.2 | 44.2 | 31.3
